Source: ChEMBL document CHEMBL1909046, “DrugMatrix in vitro pharmacology data”

Experiments:
[1] = target: T1, Alpha-2A adrenergic receptor (Homo sapiens, UniProt P08913); type: cell membranes, Sf9, Membrane; details: sf9; note: in other assays of this panel Not Active means under 50% inhibition at 10 µM
T1 sequence (P08913 whole entry): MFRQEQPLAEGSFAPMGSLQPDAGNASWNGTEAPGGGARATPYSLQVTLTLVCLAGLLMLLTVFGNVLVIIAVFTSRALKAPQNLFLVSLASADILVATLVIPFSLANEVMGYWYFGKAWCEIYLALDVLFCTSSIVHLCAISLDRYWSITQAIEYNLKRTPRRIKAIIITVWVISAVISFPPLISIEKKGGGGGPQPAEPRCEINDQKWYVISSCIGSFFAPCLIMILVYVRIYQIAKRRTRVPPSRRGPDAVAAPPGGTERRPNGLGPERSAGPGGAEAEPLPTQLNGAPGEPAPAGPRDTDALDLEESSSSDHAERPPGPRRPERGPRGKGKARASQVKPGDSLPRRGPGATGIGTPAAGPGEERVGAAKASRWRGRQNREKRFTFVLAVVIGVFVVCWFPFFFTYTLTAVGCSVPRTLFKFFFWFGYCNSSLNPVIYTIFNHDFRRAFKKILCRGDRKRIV

[2] = target: 5-hydroxytryptamine receptor 4 (Cavia porcellus, UniProt O70528); type: cell membranes, Dunkin-Hartley, Striatum, Membrane; note: in other assays of this panel Not Active means under 50% inhibition at 10 µM
Sequence of 5-hydroxytryptamine receptor 4 (O70528 whole entry): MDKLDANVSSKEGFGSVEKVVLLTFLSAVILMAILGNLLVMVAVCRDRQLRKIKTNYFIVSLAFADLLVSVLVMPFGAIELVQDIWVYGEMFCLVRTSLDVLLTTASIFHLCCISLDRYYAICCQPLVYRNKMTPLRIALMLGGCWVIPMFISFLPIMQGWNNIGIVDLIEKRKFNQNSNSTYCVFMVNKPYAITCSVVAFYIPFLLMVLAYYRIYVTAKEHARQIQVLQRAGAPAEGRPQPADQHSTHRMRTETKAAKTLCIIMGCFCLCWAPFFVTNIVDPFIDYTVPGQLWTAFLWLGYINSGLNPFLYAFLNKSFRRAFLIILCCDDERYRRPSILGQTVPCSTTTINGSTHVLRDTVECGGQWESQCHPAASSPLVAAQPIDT

[3] = DRUGMATRIX: Calcium Channel Type L, Phenylalkylamine radioligand binding (ligand: [3H] (-)-Desmethoxyverapamil (D-888)); type: cell membranes, Rattus norvegicus, Wistar, Brain, Membrane; details: Not Active = under 50% inhibition at 10 µM
[4] = target: T2, Cholecystokinin receptor type A (Homo sapiens, UniProt P32238); type: cell membranes, Membrane; details: 1321-n1; note: in other assays of this panel Not Active means under 50% inhibition at 10 µM
T2 sequence (P32238 whole entry): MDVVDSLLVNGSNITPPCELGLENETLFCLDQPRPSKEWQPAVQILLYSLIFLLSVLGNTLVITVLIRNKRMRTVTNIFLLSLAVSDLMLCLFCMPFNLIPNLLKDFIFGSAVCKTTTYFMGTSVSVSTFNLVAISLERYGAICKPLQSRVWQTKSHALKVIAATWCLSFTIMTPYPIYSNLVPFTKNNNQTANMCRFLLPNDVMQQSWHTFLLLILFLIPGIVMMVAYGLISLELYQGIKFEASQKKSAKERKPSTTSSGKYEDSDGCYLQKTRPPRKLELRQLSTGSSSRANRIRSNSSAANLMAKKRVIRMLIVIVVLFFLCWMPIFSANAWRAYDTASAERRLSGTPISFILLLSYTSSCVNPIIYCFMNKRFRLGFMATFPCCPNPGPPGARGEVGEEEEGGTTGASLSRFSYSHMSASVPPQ

[5] = target: Prostaglandin G/H synthase 1 (Homo sapiens, UniProt P23219); experiment: biochemical; type: tissue-based, Platelet; details: platelet;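 note: inhibition of COX-1 enzyme activity, with arachidonic acid supplied as substrate; in other assays of this panel Not Active means under 50% inhibition at 10 µM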
Sequence of Prostaglandin G/H synthase 1 (P23219 whole entry): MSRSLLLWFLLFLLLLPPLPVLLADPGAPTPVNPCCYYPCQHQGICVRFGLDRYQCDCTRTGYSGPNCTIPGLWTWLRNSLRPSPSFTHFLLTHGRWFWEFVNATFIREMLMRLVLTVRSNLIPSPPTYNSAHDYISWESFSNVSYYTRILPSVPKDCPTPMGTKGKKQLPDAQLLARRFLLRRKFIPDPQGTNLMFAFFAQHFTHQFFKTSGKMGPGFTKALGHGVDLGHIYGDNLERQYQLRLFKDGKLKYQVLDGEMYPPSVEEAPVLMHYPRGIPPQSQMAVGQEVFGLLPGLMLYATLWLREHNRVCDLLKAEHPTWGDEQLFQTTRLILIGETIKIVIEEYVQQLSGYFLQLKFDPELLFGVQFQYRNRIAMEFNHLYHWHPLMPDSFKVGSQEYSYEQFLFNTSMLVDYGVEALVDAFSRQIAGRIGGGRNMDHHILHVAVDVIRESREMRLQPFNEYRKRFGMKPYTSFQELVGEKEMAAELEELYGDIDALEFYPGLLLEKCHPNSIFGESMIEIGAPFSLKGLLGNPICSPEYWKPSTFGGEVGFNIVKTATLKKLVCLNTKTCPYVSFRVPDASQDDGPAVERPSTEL

[6] = target: Mu-type opioid receptor (Homo sapiens, UniProt P35372); experiment: DRUGMATRIX: Opiate mu (OP3, MOP) radioligand binding (ligand: [3H] Diprenorphine); type: cell membranes, CHO-K1, Membrane; details: cho-k1; Not Active = under 50% inhibition at 10 µM
Sequence of Mu-type opioid receptor (P35372 whole entry): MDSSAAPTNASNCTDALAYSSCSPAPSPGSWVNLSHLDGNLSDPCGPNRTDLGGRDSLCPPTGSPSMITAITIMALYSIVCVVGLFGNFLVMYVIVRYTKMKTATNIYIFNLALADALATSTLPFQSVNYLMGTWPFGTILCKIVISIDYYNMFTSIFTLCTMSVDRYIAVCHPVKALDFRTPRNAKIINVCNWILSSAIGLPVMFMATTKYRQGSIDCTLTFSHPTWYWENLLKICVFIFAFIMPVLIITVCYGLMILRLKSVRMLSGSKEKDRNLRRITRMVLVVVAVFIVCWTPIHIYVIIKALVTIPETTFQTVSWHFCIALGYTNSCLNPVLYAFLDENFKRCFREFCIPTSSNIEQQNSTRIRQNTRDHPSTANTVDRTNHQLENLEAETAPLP

[7] = DRUGMATRIX: Phosphodiesterase PDE4 enzyme inhibition (substrate: [3H]cAMP + cAMP); details: u-937, Not Active = under 50% inhibition at 10 µM
[8] = target: Platelet-activating factor receptor (Homo sapiens, UniProt P25105); experiment: biochemical; type: tissue-based; details: platelet; note: in other assays of this panel Not Active means under 50% inhibition at 10 µM
Sequence of Platelet-activating factor receptor (P25105 whole entry): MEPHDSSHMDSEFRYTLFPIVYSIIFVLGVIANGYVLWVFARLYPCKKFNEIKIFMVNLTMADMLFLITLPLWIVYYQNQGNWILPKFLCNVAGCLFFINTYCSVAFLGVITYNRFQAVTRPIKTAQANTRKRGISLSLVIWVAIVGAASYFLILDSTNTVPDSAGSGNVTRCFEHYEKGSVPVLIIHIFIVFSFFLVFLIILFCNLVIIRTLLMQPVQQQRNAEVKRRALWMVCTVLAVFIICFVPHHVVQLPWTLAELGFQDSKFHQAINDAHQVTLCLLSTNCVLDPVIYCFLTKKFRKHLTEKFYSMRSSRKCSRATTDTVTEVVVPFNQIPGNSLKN

[9] = target: T3, Interstitial collagenase (Homo sapiens, UniProt P03956); type: tissue-based, Rheumatoid synovial fibroblasts
T3 sequence (P03956 whole entry): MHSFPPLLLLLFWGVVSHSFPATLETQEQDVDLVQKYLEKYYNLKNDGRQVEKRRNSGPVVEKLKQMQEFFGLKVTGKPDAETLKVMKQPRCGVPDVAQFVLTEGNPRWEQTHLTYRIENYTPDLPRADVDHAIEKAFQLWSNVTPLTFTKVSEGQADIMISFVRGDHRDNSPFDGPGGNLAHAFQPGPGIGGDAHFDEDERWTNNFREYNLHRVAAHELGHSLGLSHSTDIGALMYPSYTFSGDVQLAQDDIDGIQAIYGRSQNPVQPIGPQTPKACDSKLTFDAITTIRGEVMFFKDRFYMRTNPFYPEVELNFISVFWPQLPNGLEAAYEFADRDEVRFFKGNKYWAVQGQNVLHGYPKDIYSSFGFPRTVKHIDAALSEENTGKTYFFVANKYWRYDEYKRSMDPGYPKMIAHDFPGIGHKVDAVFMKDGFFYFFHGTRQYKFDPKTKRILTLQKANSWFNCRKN

[10] = target: Matrix metalloproteinase-9 (Homo sapiens, UniProt P14780); type: cell-based
Sequence of Matrix metalloproteinase-9 (P14780 whole entry): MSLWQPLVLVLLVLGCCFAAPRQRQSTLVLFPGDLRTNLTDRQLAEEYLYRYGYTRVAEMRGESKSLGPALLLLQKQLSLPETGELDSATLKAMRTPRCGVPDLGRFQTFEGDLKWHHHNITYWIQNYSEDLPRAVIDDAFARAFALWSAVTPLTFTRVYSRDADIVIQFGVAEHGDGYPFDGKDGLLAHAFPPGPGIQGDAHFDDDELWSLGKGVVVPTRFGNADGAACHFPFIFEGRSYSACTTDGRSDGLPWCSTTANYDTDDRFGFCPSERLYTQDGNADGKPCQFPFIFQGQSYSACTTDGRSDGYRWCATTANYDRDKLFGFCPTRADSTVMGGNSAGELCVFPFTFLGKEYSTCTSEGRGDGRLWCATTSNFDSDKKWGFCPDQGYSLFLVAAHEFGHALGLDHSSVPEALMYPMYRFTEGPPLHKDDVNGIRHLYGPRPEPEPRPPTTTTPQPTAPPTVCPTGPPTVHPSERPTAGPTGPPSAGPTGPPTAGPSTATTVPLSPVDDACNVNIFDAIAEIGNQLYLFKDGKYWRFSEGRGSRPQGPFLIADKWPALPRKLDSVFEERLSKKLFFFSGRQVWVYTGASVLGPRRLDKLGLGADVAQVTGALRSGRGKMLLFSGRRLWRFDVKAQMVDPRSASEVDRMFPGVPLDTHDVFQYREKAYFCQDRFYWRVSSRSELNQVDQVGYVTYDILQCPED

Row | Structure (SMILES) | IC50 [1] | IC50 [2] | IC50 ([3]; read-out: IC50) [nM] | Ki ([3]; read-out: Ki) [nM] | IC50 [4] | IC50 [5] | IC50 [6] | IC50 ([7]; read-out: IC50) [nM] | IC50 [8] | IC50 [9] | IC50 [10] | IC50 [3] | Ki [3] | IC50 [7] | Ki [7]
1 | COC(=O)C1=C(C)NC(C)=C(C(=O)OC)C1c1ccccc1[N+](=O)[O-] [NIFEDIPINE] | Not Active | Not Active | 878 | 853 | Not Active | Not Active | Not Active | 44200 | Not Active | Not Active | Not Active |  |  |  | 
2 | CC(=O)[C@H]1CC[C@H]2[C@@H]3CCC4=CC(=O)CC[C@]4(C)[C@H]3CC[C@]12C [PROGESTERONE] | Not Active | Not Active |  |  | Not Active | Not Active | Not Active |  | Not Active | Not Active | Not Active | Not Active | Not Active | Not Active | Not Active
3 | NC(=O)c1ncn([C@@H]2O[C@H](CO)[C@@H](O)[C@H]2O)n1 [RIBAVIRIN] | Not Active | Not Active |  |  | Not Active | Not Active | Not Active |  | Not Active | Not Active | Not Active | Not Active | Not Active | Not Active | Not Active
4 | CC[C@H]1OC(=O)[C@H](C)[C@@H](O[C@H]2C[C@@](C)(OC)[C@@H](O)[C@H](C)O2)[C@H](C)[C@@H](O[C@@H]2O[C@H](C)C[C@H](N(C)C)[C@H]2O)[C@](C)(O)C[C@@H](C)/C(=N\OCOCCOC)[C@H](C)[C@@H](O)[C@]1(C)O [ROXITHROMYCIN] | Not Active | Not Active |  |  | Not Active | Not Active | Not Active |  | Not Active | Not Active | Not Active | Not Active | Not Active | Not Active | Not Active
5 | NC(=O)c1ccccc1O [SALICYLAMIDE] | Not Active | Not Active |  |  | Not Active | Not Active | Not Active |  | Not Active | Not Active | Not Active | Not Active | Not Active | Not Active | Not Active
6 | Cc1ncc([N+](=O)[O-])n1CC(C)O (stereo not given) [SECNIDAZOLE] | Not Active | Not Active |  |  | Not Active | Not Active | Not Active |  | Not Active | Not Active | Not Active | Not Active | Not Active | Not Active | Not Active
7 | CN[C@@H]1[C@@H](O)[C@@H](O[C@@H]2[C@@H](O)[C@H](O[C@H]3OC(CN)=CC[C@H]3N)[C@@H](N)C[C@H]2N)OC[C@]1(C)O [SISOMICIN] | Not Active | Not Active |  |  | Not Active | Not Active | Not Active |  | Not Active | Not Active | Not Active | Not Active | Not Active | Not Active | Not Active
8 | CC(=O)S[C@@H]1CC2=CC(=O)CC[C@]2(C)[C@H]2CC[C@@]3(C)[C@@H](CC[C@@]34CCC(=O)O4)[C@H]12 [SPIRONOLACTONE] | Not Active | Not Active |  |  | Not Active | Not Active | Not Active |  | Not Active | Not Active | Not Active | Not Active | Not Active | Not Active | Not Active
9 | C[C@]12Cc3c[nH]nc3C[C@@H]1CC[C@@H]1[C@@H]2CC[C@@]2(C)[C@H]1CC[C@]2(C)O [STANOZOLOL] | Not Active | Not Active |  |  | Not Active | Not Active | Not Active |  | Not Active | Not Active | Not Active | Not Active | Not Active | Not Active | Not Active
10 | CN(N=O)C(=O)N[C@@H](C=O)[C@@H](O)[C@H](O)[C@H](O)CO [STREPTOZOCIN] | Not Active | Not Active |  |  | Not Active | Not Active | Not Active |  | Not Active | Not Active | Not Active | Not Active | Not Active | Not Active | Not Active
11 | Cc1cc(NS(=O)(=O)c2ccc(N)cc2)no1 [SULFAMETHOXAZOLE] | Not Active | Not Active |  |  | Not Active | Not Active | Not Active |  | Not Active | Not Active | Not Active | Not Active | Not Active | Not Active | Not Active
12 | Nc1ccc(S(N)(=O)=O)cc1 [SULFANILAMIDE] | Not Active | Not Active |  |  | Not Active | Not Active | Not Active |  | Not Active | Not Active | Not Active | Not Active | Not Active | Not Active | Not Active
13 | Nc1ccc(S(=O)(=O)Nc2ccnn2-c2ccccc2)cc1 [SULFAPHENAZOLE] | Not Active | Not Active |  |  | Not Active | Not Active | Not Active |  | Not Active | Not Active | Not Active | Not Active | Not Active | Not Active | Not Active
